Experimental data: patent US20100249064A1, “METHODS AND COMPOSITIONS FOR TREATING DISEASES AND CONDITIONS INVOLVING HIGHER MOLECULAR WEIGHT HYALURONAN” (University of Chicago, priority 2007, published 2010)

What was measured:
C1INH = C1INH expression in EC (immunoblot); assay type: cell-based, human; details: 100 nM HMW-HA
Procedure: Determination of the role of HMW-HA/HABP2/C1INH interactions in regulating angiogenesis in vitro. Human pulmonary EC (Cambrex), grown in EBM-2 complete medium (Cambrex) at 37° C. in a humidified atmosphere of 5% CO2, 95% air, with passages 6-10 used for experimentation will be treated with or without 100 nM HMW-HA and/or 100 nM VEGF in the presence or absence of HABP2 and/or C1INH overexpression vectors (Origene), exogenous purified recombinant HABP2 polyanion binding domain and/or C1INH (Novus Biologicals) and/or siRNA (scramble, HABP2 or C1INH). For HABP2 protease activity determination, media from HABP2 overexpressing EC (see above) was immunoprecipitated with anti-HABP2 antibody-conjugated Sepharose beads (Sigma). The immunobeads were then extensively washed in 50 mM Borate, pH=8.5 and protease activity was measured using the QuantiCleave™ Protease Assay Kit (Pierce). Briefly, the immunobeads were incubated with succinylated casein for one hour followed by development with TNBSA (2,4,6-trinitrobenzene sulfonic acid) and read at 450 nm.

hyaluronidase = assay: VEGF-induced hyaluronidase expression (immunoblot); assay type: cell-based, human; details: 100 nM HMW-HA, 100 nM VEGF
Procedure: Determination of the role of HMW-HA/CD44 interactions in regulating hyaluronidase activity and angiogenesis in vitro. Human pulmonary microvascular EC (HPMVEC) (Cambrex), grown in EBM-2 complete medium (Cambrex) at 37° C. in a humidified atmosphere of 5% CO2, 95% air, with passages 6-10 used for experimentation was treated with or without 100 nM HMW-HA and/or 100 nM VEGF in the presence or absence of CD44 isoform-specific blocking antibodies (EMD Biosciences), siRNA (scramble, CD44, Hyal-1, Hyal-2, Hyal-3 or Hyal-4) and the potent hyaluronidase inhibitor, L-ascorbic acid 6-hexadecanoate (Botzki et al., 2004) (Sigma). […] Treated EC will either be analyzed for protein expression, hyaluronidase activity or VEGF-induced proliferation, migration or tube formation. […] Cells from the upper and lower chamber were quantitated using the CellTiter96™ MTS assay (Promega, San Luis Obispo, Calif.) and read at 492 nm. % migration was defined as the # of cells in the lower chamber […] the number of cells in both the upper and lower chamber. Each assay was set up in triplicate, repeated at least five times and analyzed statistically by Student's t test (with statistical significance set at P<0.05). […] The in vitro cell proliferation assay was analyzed by measuring increases in cell number using the CellTiter96™ MTS assay (Promega, San Luis Obispo, Calif.) and read at 492 nm. […]

caveolin-1 = assay: Caveolin-1 expression in mouse lung homogenates (immunoblot); assay type: in vivo; details: HMW-HA+LPS
Procedure: Animal Preparation and Treatment. Male C57BL/6J, B6129N2, CD44^−/− or caveolin-1^−/− mice (8-10 weeks, Jackson Laboratories, Bar Harbor, Me.) were anesthetized with intraperitoneal ketamine (150 mg/kg) and acetylpromazine (15 mg/kg) before exposure of the right internal jugular vein via neck incision. LPS (2.5 mg/kg) or water (control) were instilled intratracheally. Four hours later, mice receive high MW HA (1.5 mg/kg) or water control through the internal jugular vein. The animals were allowed to recover for 24 hours after LPS before bronchioalveolar lavage protein and cytokine concentration and/or lung immunohistochemistry/immunoblot analysis (Peng et al., 2004).
Immunoblot analysis of CD44 and Caveolin-1 expression in control, LPS- and HA-treated mouse lung homogenates. CD44 is highly likely to be important in lung disease as CD44−/− mice develop lung fibrosis, inflammatory cell recruitment and accumulation of hyaluronan fragments at sites of lung injury (Teder et al., 2002). […] Caveolin-1 can be differentially regulated in various models of acute lung injury (ALI). Monocrotaline-induced rodent pulmonary hypertension results in a loss of lung EC caveolin-1 expression (Mathew et al., 2004). In contrast, there is no change in pulmonary caveolin-1 expression in lipopolyscaaharide (LPS)-induced sepsis with lung injury (Garrean et al., 2006). […]

hyaluronan [HMW-HA]
C1INH expression in EC (C1INH): increased the expression of the endogenous inhibitor of HABP2, C1INH
VEGF-induced hyaluronidase expression (hyaluronidase): inhibited VEGF-induced hyaluronidase expression
caveolin-1 expression in mouse lungs (caveolin-1): did not significantly alter caveolin-1 expression
